From ChEMBL document CHEMBL1681717, “Design and synthesis of a novel, orally active, brain penetrant, tri-substituted thiophene based JNK inhibitor” (Bioorg Med Chem Lett, 2011)

What was measured:
[1] = target: Mitogen-activated protein kinase 9 (Homo sapiens, UniProt P45984); test: Inhibition of recombinant JNK2 after 60 mins by TR-FRET assay
[2] = target: Mitogen-activated protein kinase 8 (Homo sapiens, UniProt P45983); test: Inhibition of recombinant JNK1 after 60 mins by TR-FRET assay
[3] = target: Mitogen-activated protein kinase 10 (Homo sapiens, UniProt P53779); test: Inhibition of recombinant JNK3 after 60 mins by TR-FRET assay
Chain of Mitogen-activated protein kinase 10 (P53779 whole entry): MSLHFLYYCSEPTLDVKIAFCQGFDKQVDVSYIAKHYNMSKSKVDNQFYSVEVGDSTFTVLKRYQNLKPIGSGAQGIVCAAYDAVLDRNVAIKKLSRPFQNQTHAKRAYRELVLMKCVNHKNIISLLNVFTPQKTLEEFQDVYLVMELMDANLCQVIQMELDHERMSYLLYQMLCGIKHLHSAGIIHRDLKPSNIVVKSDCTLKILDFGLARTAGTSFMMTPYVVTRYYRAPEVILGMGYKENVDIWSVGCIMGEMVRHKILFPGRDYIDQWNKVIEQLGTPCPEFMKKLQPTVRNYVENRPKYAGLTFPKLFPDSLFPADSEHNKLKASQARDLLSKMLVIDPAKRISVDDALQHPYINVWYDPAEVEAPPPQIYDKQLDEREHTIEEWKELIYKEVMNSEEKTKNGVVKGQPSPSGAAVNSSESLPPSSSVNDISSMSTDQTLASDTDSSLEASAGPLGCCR

[4] = target: Mitogen-activated protein kinase 1 (Homo sapiens, UniProt P28482); test: Inhibition of recombinant ERK2 after 60 mins by TR-FRET assay
Chain of Mitogen-activated protein kinase 1 (P28482 whole entry): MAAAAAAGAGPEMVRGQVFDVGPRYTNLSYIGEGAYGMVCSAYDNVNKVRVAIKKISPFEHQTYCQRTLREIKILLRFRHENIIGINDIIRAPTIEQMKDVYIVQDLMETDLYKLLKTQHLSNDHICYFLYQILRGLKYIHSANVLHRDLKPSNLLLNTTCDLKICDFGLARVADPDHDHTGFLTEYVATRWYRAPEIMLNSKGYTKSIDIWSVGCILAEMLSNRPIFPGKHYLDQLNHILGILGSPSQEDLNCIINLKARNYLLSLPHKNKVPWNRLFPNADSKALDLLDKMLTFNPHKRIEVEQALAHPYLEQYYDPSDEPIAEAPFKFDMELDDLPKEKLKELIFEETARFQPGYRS

[5] = target: Mitogen-activated protein kinase 14 (Homo sapiens, UniProt Q16539); test: Inhibition of recombinant p38alpha after 60 mins by TR-FRET assay
Chain of Mitogen-activated protein kinase 14 (Q16539 whole entry): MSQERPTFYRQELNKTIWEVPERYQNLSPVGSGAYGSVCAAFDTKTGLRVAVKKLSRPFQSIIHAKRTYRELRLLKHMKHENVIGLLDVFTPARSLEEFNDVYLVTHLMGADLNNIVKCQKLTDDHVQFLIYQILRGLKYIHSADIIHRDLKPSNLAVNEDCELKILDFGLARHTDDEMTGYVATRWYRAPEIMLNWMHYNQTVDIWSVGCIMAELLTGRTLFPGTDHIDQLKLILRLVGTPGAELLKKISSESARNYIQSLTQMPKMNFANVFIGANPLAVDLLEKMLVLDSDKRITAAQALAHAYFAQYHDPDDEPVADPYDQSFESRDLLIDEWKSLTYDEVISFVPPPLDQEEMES

MDR1 [6] = test: Apparent permeability of the compound from apical to basolateral direction in MDCK2 cells expressing MDR1; type: ADME, cell-based, Canis lupus familiaris, MDCK-II; conditions: dog, MDCK-MDR1
[7] = Oxidative metabolic stability in human liver microsomes assessed as compound remaining at 5 uM after 120 mins; type: ADME, Microsome; conditions: read-out: Stability
[8] = Oxidative metabolic stability in mouse liver microsomes assessed as compound remaining at 5 uM after 120 mins; type: ADME, Microsome; conditions: read-out: Stability
MDR1 [9] = test: Efflux ratio of permeability from basolateral to apical side over apical to basolateral side in MDCK2 cells expressing MDR1; type: ADME, cell-based, Canis lupus familiaris, MDCK-II; conditions: dog, MDCK-MDR1
[10] = Solubility of the compound in hank's buffered salt solution; type: physicochemical

Chain of Mitogen-activated protein kinase 8 (P45983 whole entry): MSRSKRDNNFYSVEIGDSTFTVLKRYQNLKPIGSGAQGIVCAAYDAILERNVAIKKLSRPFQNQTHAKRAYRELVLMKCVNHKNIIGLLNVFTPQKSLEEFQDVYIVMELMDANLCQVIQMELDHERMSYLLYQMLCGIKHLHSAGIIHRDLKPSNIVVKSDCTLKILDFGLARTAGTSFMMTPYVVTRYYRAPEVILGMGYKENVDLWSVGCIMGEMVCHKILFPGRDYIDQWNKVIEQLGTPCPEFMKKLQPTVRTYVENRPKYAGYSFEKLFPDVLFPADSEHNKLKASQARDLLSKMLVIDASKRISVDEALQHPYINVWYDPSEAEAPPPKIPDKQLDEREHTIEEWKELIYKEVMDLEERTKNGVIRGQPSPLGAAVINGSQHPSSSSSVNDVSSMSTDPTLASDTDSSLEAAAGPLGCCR
Chain of Mitogen-activated protein kinase 9 (P45984 whole entry): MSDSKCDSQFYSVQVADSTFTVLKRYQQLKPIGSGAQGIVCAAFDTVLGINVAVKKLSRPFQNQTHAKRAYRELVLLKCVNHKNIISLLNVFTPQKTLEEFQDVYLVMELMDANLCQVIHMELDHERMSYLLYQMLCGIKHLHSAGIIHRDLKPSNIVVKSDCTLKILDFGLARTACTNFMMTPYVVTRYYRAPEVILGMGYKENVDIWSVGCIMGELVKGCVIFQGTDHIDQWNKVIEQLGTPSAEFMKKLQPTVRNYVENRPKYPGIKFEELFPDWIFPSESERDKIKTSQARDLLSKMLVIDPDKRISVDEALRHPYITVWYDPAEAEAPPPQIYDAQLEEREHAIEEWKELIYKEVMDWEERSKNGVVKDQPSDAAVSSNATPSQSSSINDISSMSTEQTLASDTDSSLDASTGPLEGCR

Compound | IC50 [1] | IC50 [2] | IC50 [3] | IC50 [4] | IC50 [5] | Papp A→B (MDR1 [6]) | remaining at 2 h, 5 µM [7] | remaining at 2 h, 5 µM [8] | efflux ratio (MDR1 [9]) | solubility [10]
COC(=O)c1c(C)csc1NC(=O)Cc1ccc(-c2ccncc2)cc1 | 1840 nM | 283 nM | 263 nM |  |  |  |  |  |  | 
CCOC(=O)c1c(C(F)(F)F)csc1NC(=O)Cc1ccc(OC)cc1 | > 50000 nM | 18900 nM | 38800 nM |  |  |  |  |  |  | 
Cc1n[nH]c(-c2c(C)csc2NC(=O)Cc2cccc3ncccc23)n1 | 81 nM | 45 nM | 80 nM | > 50000 nM | > 50000 nM |  |  |  |  | 
COC(=O)c1c(C)csc1NC(=O)Cc1ccc(OCCCn2ccnc2)cc1 | 4520 nM | 597 nM | 504 nM |  |  |  |  |  |  | 
N#Cc1csc(NC(=O)CN2C(=O)CCc3ccccc32)c1-c1ncn[nH]1 | 8 nM | 9 nM | 6 nM | > 50000 nM | > 50000 nM | 18 ×10⁻⁶ cm/s | 39% | 37% | 4.1 | 
COc1ccc(CC(=O)Nc2scc(C)c2-c2nc(C)n[nH]2)cc1 | 824 nM | 331 nM | 465 nM |  |  |  |  |  |  | 
O=C(CN1C(=O)CCc2ccccc21)Nc1scc(Cl)c1-c1ncn[nH]1 | 9 nM | 4 nM | 5 nM | > 50000 nM | > 50000 nM | 23.3 ×10⁻⁶ cm/s | 20% | 0% | 0.9 | 
O=C(Cc1cccc2ncccc12)Nc1scc(Cl)c1-c1ncn[nH]1 | 42 nM | 15 nM | 18 nM | > 50000 nM | > 50000 nM |  |  |  |  | 
COC(=O)c1c(C)csc1NC(=O)Cc1cccc2cnccc12 | 863 nM | 31 nM | 62 nM |  |  |  |  |  |  | 
COC(=O)c1c(C)csc1NC(=O)Cc1ccc(OCCCN2CCCC2)cc1 | 2570 nM | 284 nM | 226 nM |  |  |  |  |  |  | 
CCOC(=O)c1c(C#N)csc1NC(=O)Cc1ccc(OC)cc1 | 930 nM | 350 nM | 310 nM |  |  |  |  |  |  | 
COC(=O)c1c(C)csc1NC(=O)Cc1ccc(OC)cc1 | 3140 nM | 590 nM | 700 nM |  |  |  |  |  |  | 
N#Cc1csc(NC(=O)Cc2cccc3cnccc23)c1-c1ncn[nH]1 | 26 nM | 11 nM | 7 nM | > 50000 nM | > 50000 nM | 13.3 ×10⁻⁶ cm/s | 62% | 48% | 4.6 | 
COC(=O)c1c(C)csc1NC(=O)CN1C(=O)CCc2ccccc21 | 703 nM | 78 nM | 125 nM |  |  |  |  |  |  | 
N#Cc1csc(NC(=O)Cc2cccc3ncccc23)c1-c1nnc[nH]1 | 41 nM | 12 nM | 12 nM | 35100 nM | > 50000 nM |  |  |  |  | 
Cc1csc(NC(=O)Cc2cccc3ncccc23)c1-c1ncn[nH]1 | 125 nM |  |  | > 50000 nM | > 50000 nM | 16.1 ×10⁻⁶ cm/s | 46% | 1% |  | 

Compound | IC50 [1] | IC50 [2] | IC50 [3] | IC50 [4] | IC50 [5] | Papp A→B (MDR1 [6]) | remaining at 2 h, 5 µM [7] | remaining at 2 h, 5 µM [8] | efflux ratio (MDR1 [9]) | solubility [10]
O=C(Cc1cccc2cnccc12)Nc1scc(Br)c1-c1ncn[nH]1 | 50 nM | 28 nM | 33 nM | > 50000 nM | > 50000 nM |  |  |  |  | 
Cc1n[nH]c(-c2c(C)csc2NC(=O)Cc2cccc3nccnc23)n1 | 230 nM | 298 nM | 594 nM | > 5000 nM | > 5000 nM |  |  |  |  | 
COC(=O)c1c(C)csc1NC(=O)Cc1cccc2nccnc12 | 765 nM | 95 nM | 162 nM |  |  |  |  |  |  | 
O=C(Cc1cccc2ncccc12)Nc1scc(Br)c1-c1ncn[nH]1 | 90 nM | 42 nM | 34 nM | > 50000 nM | > 50000 nM |  |  |  |  | 
C#Cc1csc(NC(=O)Cc2ccc(OC)cc2)c1C(=O)OCC | 28400 nM | 1050 nM | 3020 nM |  |  |  |  |  |  | 
COC(=O)c1c(C)csc1NC(=O)Cc1ccc(OCCCN2CCCCC2)cc1 | 613 nM | 295 nM | 99 nM |  |  |  |  |  |  | 
CCOC(=O)c1c(C2CC2)csc1NC(=O)Cc1ccc(OC)cc1 | 6290 nM | 15600 nM | 9620 nM |  |  |  |  |  |  | 
Cc1nnc(-c2c(C)csc2NC(=O)Cc2ccc(-c3ccncc3)cc2)[nH]1 |  |  | 324 nM | > 5000 nM | > 5000 nM |  |  |  |  | 
Cc1csc(NC(=O)CN2C(=O)CCc3ccccc32)c1-c1ncn[nH]1 | 31 nM | 32 nM |  | > 50000 nM | > 50000 nM | 14.8 ×10⁻⁶ cm/s | 0% | 0% | 3.2 | 
COC(=O)c1sccc1NC(=O)Cc1cccs1 | 23000 nM |  |  | > 50000 nM | > 50000 nM | 14.4 ×10⁻⁶ cm/s |  |  |  | 72 µM
O=C(CN1C(=O)CCc2ccccc21)Nc1scc(Br)c1-c1ncn[nH]1 | 42 nM | 25 nM | 28 nM | > 50000 nM | > 20000 nM |  |  |  |  | 
COC(=O)c1c(C)csc1NC(=O)Cc1cccc2cc[nH]c12 | 4150 nM | 686 nM | 1020 nM |  |  |  |  |  |  | 
CCc1csc(NC(=O)Cc2ccc(OC)cc2)c1C(=O)OC | 22500 nM | 19300 nM | 9110 nM |  |  |  |  |  |  | 
Cc1n[nH]c(-c2c(C)csc2NC(=O)CN2C(=O)CCc3ccccc32)n1 | 42 nM | 15 nM | 25 nM | > 50000 nM | > 50000 nM |  |  |  |  | 
COC(=O)c1c(C)csc1NC(=O)Cc1cccc2ncccc12 | 409 nM | 55 nM | 110 nM |  |  |  |  |  |  | 
Cc1n[nH]c(-c2c(C)csc2NC(=O)Cc2ccc(OCCCN3CCCCC3)cc2)n1 | 1620 nM | 463 nM | 197 nM | > 5000 nM | > 5000 nM |  |  |  |  | 
